Results as given in article PMC5736936, “Xylopine Induces Oxidative Stress and Causes G2/M Phase Arrest, Triggering Caspase-Mediated Apoptosis by p53-Independent Pathway in HCT116 Cells” (Oxidative Medicine and Cellular Longevity, 2017).
pIC50: −log10 of the molar value. Where two headings read alike, the source gives them in different places.

Assays:
[1] = test system: BAD KO SV40 MEF (BAD gene knockout immortalized mouse embryonic fibroblast); assay: Cytotoxic activity in BAD gene knockout fibroblasts; type: cell-based; settings: BAD KO SV40 MEF cell line
Text: (§1) MCF7 (human breast carcinoma), HCT116 (human colon carcinoma), HepG2 (human hepatocellular carcinoma), SCC-9 (human oral squamous cell carcinoma), HSC-3 (human oral squamous cell carcinoma), HL-60 (human promyelocytic leukemia), K-562 (human chronic myelogenous leukemia), B16-F10 (murine melanoma), MRC-5 (human lung fibroblast), WT SV40 MEF (wild-type immortalized mouse embryonic fibroblast), and BAD KO SV40 MEF (BAD gene knockout immortalized mouse embryonic fibroblast) cell lines were obtained from the American Type Culture Collection (ATCC, Manassas, VA, USA). Cells were cultured in complete medium with appropriate supplements as recommended by ATCC. All cell lines were tested for mycoplasma using the Mycoplasma Stain Kit (Sigma-Aldrich) to validate the use of cells free from contamination. Primary cell culture of peripheral blood mononuclear cells (PBMC) was obtained by standard Ficoll density protocol. The Research Ethics Committee of the Oswaldo Cruz Foundation (Salvador, BA, Brazil) approved the experimental protocol (number 031019/2013). Cell viability was examined using trypan blue exclusion assay for all experiments.
(§2) Cell viability was quantified using the alamarBlue assay according to Ahmed et al.. Cells were inserted in 96-well plates for all experiments (7 × 10^4 cells/mL for adherent cells or 3 × 10^5 cells/mL for suspended cells in 100 μL of medium). After 24 h, xylopine was dissolved in dimethyl sulfoxide (DMSO) and added to each well and incubated for 72 h. […] Four (for cell lines) or 24 h (for PBMCs) before the end of incubation, 20 μL of a stock solution (0.312 mg/mL) of the alamarBlue (resazurin, Sigma-Aldrich Co., Saint Louis, MO, USA) was added to each well. Absorbance at 570 nm and 600 nm was measured using the SpectraMax 190 Microplate Reader (Molecular Devices, Sunnyvale, CA, USA), and the drug effect was quantified as the percentage of control absorbance.

[2] = test system: WT SV40 MEF (wild-type immortalized mouse embryonic fibroblast); assay: Cytotoxic activity in wild-type fibroblasts; type: cell-based; settings: WT SV40 MEF cell line
Text: as §1, §2

HCT116 cells [3] = assay: Cell viability by trypan blue exclusion assay; type: cell-based, human; settings: for reduction of the number of viable cells: HCT116, trypan blue
Text: as §1

HCT116 cells [4] = type: cell-based, human
Procedure: Cells were harvested in a permeabilization solution containing 0.1% Triton X-100 (Sigma Chemical Co., St Louis, MO, USA), 2 μg/mL propidium iodide (Sigma Chemical Co.), 0.1% sodium citrate, and 100 μg/mL RNAse (Sigma Chemical Co.) and incubated in the dark for 15 min at room temperature. Finally, cell fluorescence was measured by flow cytometry on a BD LSRFortessa cytometer using the BD FACSDiva software (BD Biosciences) and FlowJo software 10 (FlowJo, LCC, Ashland, OR, USA).

HCT116 cells [5] = assay: Cellular reactive oxygen species levels (DCF-DA); type: cell-based, human
Procedure: The levels of reactive oxygen species (ROS) were measured according to previously described using 2′,7′-dichlorofluorescin diacetate (DCF-DA) (Sigma-Aldrich Co.). In brief, cells were treated with xylopine for 1 and 3 h. Then, the cells were collected, washed with saline, and resuspended in FACS tubes with saline containing 5 μM DCF-DA for 30 min. Finally, the cells were washed with saline and the cell fluorescence was determined by flow cytometry as described above. The protection assay using the antioxidant NAC and catalase (Sigma-Aldrich Co.) was performed. In brief, the cells were pretreated for 1 h with 5 mM NAC or 2000 UI catalase and then incubated with xylopine in the established concentration for 1 h. The cells were then trypsinized and the ROS levels were measured as described above.

HCT116 cells [6] = assay: Cellular GSH level; type: cell-based, human; settings: HCT116, 1 h
Procedure: A quantification kit for reduced glutathione (L-γ-glutamyl-L-cysteinyl-glycine, GSH, Sigma-Aldrich Co.) was used to investigate cellular GSH level in xylopine-treated HCT116 cells and the analysis was performed according to the manufacturer's instructions.

calf thymus DNA (ctDNA) = assay: DNA intercalation assay (ethidium bromide displacement); type: binding; settings: 10 or 20 μM xylopine, 15 μg/mL ctDNA, 1.5 μM ethidium bromide
Procedure: DNA intercalation was assessed by examining the ability of xylopine to displace ethidium bromide from calf thymus DNA (ctDNA, Sigma-Aldrich Co.). The assay was conducted in 96-well plates and contained 15 μg/mL ctDNA, 1.5 μM ethidium bromide, and 10 or 20 μM xylopine in 100 μL saline solution. […] Fluorescence was measured using excitation and emission wavelengths of 320 and 600 nm, respectively.

HCT116 cells [7] = assay: Morphological analysis (May-Grünwald-Giemsa); type: cell-based, human; settings: 24 and 48 h, DOX 1 μM, OXA 2.5 μM
Procedure: To evaluate alterations in morphology, cells were cultured under coverslip and stained with May-Grünwald-Giemsa. Morphological changes were examined by light microscopy using Image-Pro software.

[8] = test system: human hepatocellular carcinoma HepG2 cells; set-up: method as in PMID 27399666; settings: cited from earlier work
[9] = HCT116, XYL 3.5 μM, 24 h incubation
[10] = HCT116, XYL 3.5 μM, 48 h incubation
[11] = HCT116, XYL 7 μM, 24 h incubation
[12] = HCT116, XYL 7 μM, 48 h incubation
[13] = HCT116, XYL 14 μM, 24 h incubation
[14] = HCT116, XYL 14 μM, 48 h incubation

## COc1ccc2c(c1)C[C@@H]1NCCc3cc4c(c-2c31)OCO4 [XYL, xylopine]
[1]
  pIC50: 5.19
[2]
  pIC50: 5.10
HCT116 cells [3]; 3.5 μM, 24 h
  reduction of the number of viable cells: 50.2%
HCT116 cells [3]; 3.5 μM, 48 h
  reduction of the number of viable cells: 79.9%
HCT116 cells [3]; 7 μM, 24 h
  reduction of the number of viable cells: 64.4%
HCT116 cells [3]; 7 μM, 48 h
  reduction of the number of viable cells: 84.6%
HCT116 cells [3]; 14 μM, 24 h
  reduction of the number of viable cells: 71.8%
HCT116 cells [3]; 14 μM, 48 h
  reduction of the number of viable cells: 89.4%
HCT116 cells [3]; HCT116, trypan blue, 3.5, 7, 14 μM, 24 and 48 h
  number of nonviable cells: No significant increase
HCT116 cells [4]; [9]
  DNA content (%) G0/G1: 17.0 ± 7.0^∗ %
  DNA content (%) G2/M: 57.2 ± 3.5^∗ %
  DNA content (%) S: 24.7 ± 4.8%
  DNA content (%) Sub-G0/G1: 6.2 ± 1.9%
HCT116 cells [4]; HCT116, XYL 3.5 μM, 24 h incubation, listed as xylopine
  DNA content (%) G2/M: 57.2%
HCT116 cells [4]; [10]
  DNA content (%) G0/G1: 17.0 ± 6.3^∗ %
  DNA content (%) G2/M: 52.0 ± 6.8^∗ %
  DNA content (%) S: 11.1 ± 2.2%
  DNA content (%) Sub-G0/G1: 15.2 ± 1.9%
HCT116 cells [4]; HCT116, XYL 3.5 μM, 48 h incubation, listed as xylopine
  DNA content (%) G2/M: 52.0%
HCT116 cells [4]; [11]
  DNA content (%) G0/G1: 14.9 ± 4.2^∗ %
  DNA content (%) G2/M: 58.5 ± 2.9^∗ %
  DNA content (%) S: 23.3 ± 3.7%
  DNA content (%) Sub-G0/G1: 5.1 ± 1.6%
HCT116 cells [4]; HCT116, XYL 7 μM, 24 h incubation, listed as xylopine
  DNA content (%) G2/M: 58.5%
HCT116 cells [4]; [12]
  DNA content (%) G0/G1: 10.3 ± 1.3^∗ %
  DNA content (%) G2/M: 52.7 ± 3.6^∗ %
  DNA content (%) S: 6.8 ± 2.0%
  DNA content (%) Sub-G0/G1: 25.9 ± 2.5^∗ %
HCT116 cells [4]; HCT116, XYL 7 μM, 48 h incubation, listed as xylopine
  DNA content (%) G2/M: 52.7%
HCT116 cells [4]; [13]
  DNA content (%) G0/G1: 30.5 ± 6.0%
  DNA content (%) G2/M: 54.0 ± 6.1^∗ %
  DNA content (%) S: 11.1 ± 1.6%
  DNA content (%) Sub-G0/G1: 11.3 ± 1.4%
HCT116 cells [4]; HCT116, XYL 14 μM, 24 h incubation, listed as xylopine
  DNA content (%) G2/M: 54.0%
HCT116 cells [4]; [14]
  DNA content (%) G0/G1: 14.6 ± 2.6^∗ %
  DNA content (%) G2/M: 40.8 ± 5.7^∗ %
  DNA content (%) S: 9.3 ± 1.7%
  DNA content (%) Sub-G0/G1: 33.4 ± 6.2^∗ %
HCT116 cells [4]; HCT116, XYL 14 μM, 48 h incubation, listed as xylopine
  DNA content (%) G2/M: 40.8%
HCT116 cells [5]; HCT116, 5 mM NAC 1 h, then 14 μM xylopine 1 h
  xylopine-induced increase in intracellular ROS level on cotreatment with NAC: prevented
HCT116 cells [5]; HCT116, 2000 UI catalase 1 h, then 14 μM xylopine 1 h
  xylopine-induced increase in intracellular ROS levels on cotreatment with catalase: prevented
HCT116 cells [5]; HCT116, DCF-DA, 1 and 3 h
  ROS levels: caused an increase in the ROS levels
HCT116 cells [6]
  GSH levels: decreased
Calf thymus DNA (ctDNA)
  displacement of ethidium bromide from ctDNA (fluorescence intensity): not able to decrease the ethidium bromide fluorescence
HCT116 cells [7]
  cell morphology: reduction in the cell volume, chromatin condensation, and fragmentation of the nuclei
[8]
  cell cycle arrest and apoptosis: causes G2/M cell cycle arrest and apoptosis
